Where a name gives a salt, the structure may show the parent alone.

The subject of one test is cycloxygenase.
Experiment: not given
The following applies: in words, prior-art compound; cited from earlier work.
Consider `CC(C)(C)c1cc(C=C2SC(=NC#N)NC2=O)cc(C(C)(C)C)c1O`, for which the cycloxygenase inhibiting action is 5-lipoxygenase and cycloxygenase inhibiting actions.

A further test relates to aldose reducing enzyme.
Experiment: not given
The following applies: in words, prior-art compound; cited from earlier work.
As for `CC(C)(C)c1cc(C=C2SC(=NC#N)NC2=O)cc(C(C)(C)C)c1O`, the “aldose reducing enzyme inhibiting action” value is recorded as “no aldose reducing enzyme inhibiting action”.

The next test relates to 5-lipoxygenase.
Experiment: not given
The following applies: in words, prior-art compound; cited from earlier work.
`CC(C)(C)c1cc(C=C2SC(=NC#N)NC2=O)cc(C(C)(C)C)c1O`: the 5-lipoxygenase inhibiting action is 5-lipoxygenase and cycloxygenase inhibiting actions.

The target of the next test is aldose reducing enzyme (Homo sapiens, UniProt P15121). Put plainly: Aldose reducing enzyme inhibiting activity (method of Hayman et al.). The test is classed as biochemical, Recombinant. The following applies: 1.0×10^-7 mol concentration level of the tested compound; human recombinant enzyme; read-out: Inhibition rate (%).
For the molecule `CC(=Cc1ccccc1)C=C1SC(=NC#N)NC1=O` [Example 1, 2-(N-cyanoimino)-5-(2-methyl-3-phenylpropenylidene) thiazolidin-4-one], the inhibition (as a rule, the change of the read-out against control, counted positive when it falls) at 0.1 µM stood at 72%.

Take `CC(=Cc1ccccc1)C=C1SC(=NC#N)N(CC(=O)O)C1=O` [Example 2, 2-(N-cyanoimino)-5-(2-methyl-3-phenylpropenylidene)-4-oxo-3-thiazolidine acetic acid]: the inhibition at 0.1 µM is 100%.

Take `CC(=Cc1ccccc1)C=C1SC(=NC#N)N(C)C1=O` [Example 3, 2-(N-cyanoimino)-3-methyl-5-(2-methyl-3-phenylpropenylidene) thiazolidin-4-one]: the inhibition at 0.1 µM is 12%.

Regarding `N#CN=C1NC(=O)C(=Cc2ccc3c(c2)OCO3)S1` [Example 4, 2-(N-cyanoimino)-5-(3,4-methylenedioxybenzylidene) thiazolidin-4-one], the inhibition at 0.1 µM amounted to 44%.

For the molecule `N#CN=C1NC(=O)C(=Cc2ccc3ccccc3c2)S1` [Example 5, 2-(N-cyanoimino)-5-(2-naphthylmethylene) thiazolidin-4-one], the inhibition at 0.1 µM was 44%.

Turning to `N#CN=C1NC(=O)C(=Cc2ccccc2)S1` [Example 6, 5-benzylidene-2-(N-cyanoimino)-4-oxythiazolidine], the inhibition at 0.1 µM stood at 32%.

For the molecule `N#CN=C1NC(=O)C(=CC=Cc2ccccc2)S1` [Example 7, 2-(N-cyanoimino)-5-(3-phenylpropenylidene) thiazolidin-4-one], the inhibition at 0.1 µM was determined as 44%.

For `COc1ccc2cc(C=C3SC(=NC#N)NC3=O)ccc2c1` [Example 8, 2-(N-cyanoimino)-5-[2-(6-methoxynaphthyl)methylene]thiazolidin-4-one], the inhibition at 0.1 µM turned out to be 68%.

As to `N#CN=C1NC(=O)C(=Cc2cccc3ccccc23)S1` [Example 9, 2-(N-cyanoimino)-5-(1-naphthylmethylene) thiazolidin-4-one], the inhibition at 0.1 µM came out at 20%.

In the case of `COc1cc(C=C2SC(=NC#N)NC2=O)ccc1O` [Example 10, 2-(N-cyanoimino)-5-(4-hydroxy-3-methoxybenzylidene) thiazolidin-4-one], the inhibition at 0.1 µM was determined as 100%.

As for `Cc1cccc(C=C2SC(=NC#N)NC2=O)c1` [Example 11, 2-(N-cyanoimino)-5-(3-methylbenzylidene) thiazolidin-4-one], the inhibition at 0.1 µM was found to be 52%.

Take `COc1ccccc1C=CC=C1SC(=NC#N)NC1=O` [Example 12, 2-(N-cyanoimino)-5-[3-(2-methoxyphenyl)propenylidene] thiazolidin-4-one]: the inhibition at 0.1 µM was 84%.

With `CCC(=C1SC(=NC#N)NC1=O)c1ccccc1` [Example 14, 2-(N-cyanoimino)-5-(1-phenylpropylidene) thiazolidin-4-one], the inhibition at 0.1 µM is 12%.

Take `CC(=C1SC(=NC#N)NC1=O)c1ccc2ccccc2c1` [Example 15, 2-(N-cyanoimino)-5-[1-(2-naphthyl)ethylidene] thiazolidin-4-one]: the inhibition at 0.1 µM is 64%.

The test is the same for the next values; noted with them: read-out: Inhibition rate (%).
Turning to `CC(=C1SC(=NC#N)NC1=O)c1ccccc1` [Example 13, 2-(N-cyanoimino)-5-(1-phenylethylidene) thiazolidin-4-one potassium salt], the inhibition at 0.1 µM is 60%.

Source of the values: US5750712A, “2-(n-cyanoimino)-thiazolidin-4-one derivatives” (priority 1994, dated 1998).
